Values joined by “and” are separate entries in the source; they are usually repeats but may differ in a detail not shown here. Equal values may be shown once. Toxic doses and inconclusive results are not listed.
Test system: P388 leukemia ip, CD2F1 mice, survival T/C
Test: NCI In Vivo Anticancer Drug Screen. Data for tumor model P388 Leukemia (intraperitoneal) in CD2F1 (CDF1) mice
Details: endpoint: median survival time, higher = longer survival
Method in brief: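 Mice carrying the transplanted tumor received test compound or vehicle. Survival was recorded in each group, and the value is the treated-group measurement divided by that of the vehicle-treated control group.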

[1] = dose: 60.0 mg/kg/injection, schedule: Q01DX005 (ip), vehicle: saline with Tween-80
[2] = dose: 50.0 mg/kg/injection, schedule: Q01DX005 (ip), vehicle: Klucel (hydroxypropylcellulose) (HPC)
[3] = dose: 100.0 mg/kg/injection, schedule: Q01DX005 (ip), vehicle: Klucel (hydroxypropylcellulose) (HPC)
[4] = dose: 200.0 mg/kg/injection, schedule: Q01DX005 (ip), vehicle: Klucel (hydroxypropylcellulose) (HPC)
[5] = dose: 50.0 mg/kg/injection, schedule: Q01DX009 (ip), vehicle: saline with Tween-80
[6] = dose: 100.0 mg/kg/injection, schedule: Q01DX009 (ip), vehicle: saline with Tween-80
[7] = dose: 50.0 mg/kg/injection, schedule: Q01DX005 (ip), vehicle: saline with Tween-80
[8] = dose: 100.0 mg/kg/injection, schedule: Q01DX005 (ip), vehicle: saline with Tween-80
[9] = dose: 200.0 mg/kg/injection, schedule: Q01DX005 (ip), vehicle: saline with Tween-80
[10] = dose: 100.0 mg/kg/injection, schedule: Q04DX003 (ip), vehicle: saline
[11] = dose: 200.0 mg/kg/injection, schedule: Q04DX003 (ip), vehicle: saline
[12] = dose: 12.5 mg/kg/injection, schedule: Q01DX009 (ip), vehicle: saline
[13] = dose: 25.0 mg/kg/injection, schedule: Q01DX009 (ip), vehicle: saline
[14] = dose: 50.0 mg/kg/injection, schedule: Q01DX009 (ip), vehicle: saline
[15] = dose: 12.5 mg/kg/injection, schedule: Q04DX003 (ip), vehicle: saline
[16] = dose: 25.0 mg/kg/injection, schedule: Q04DX003 (ip), vehicle: saline
[17] = dose: 120.0 mg/kg/injection, schedule: Q01DX005 (ip), vehicle: saline with Tween-80
[18] = dose: 240.0 mg/kg/injection, schedule: Q01DX005 (ip), vehicle: saline with Tween-80

With `CCN(CC)Cc1c(C)nc2cc(N(C)C)ccc2c1Cl` the T/C [1] was 103 % of control.
With `COC1=C(OC)S[C@H]2[C@@H]3C[C@@H]([C@H]4CC=C[C@@H]34)[C@H]2S1` the T/C [2] was 100 % of control, the T/C [3] was 103 % of control and the T/C [4] was 97 % of control.
For `CC(Cl)C(=O)N/N=C(/c1ccccc1)C(C)(C)C` (stereo unspecified), the T/C [5] was 89 % of control and the T/C [6] was 86 % of control.
With `CCCCCCCC/C=C\CCCCCCCCN=Cc1c(O)c(O)c(C(C)C)c2cc(C)c(-c3c(C)cc4c(C(C)C)c(O)c(O)c(C=NCCCCCCCC/C=C\CCCCCCCC)c4c3O)c(O)c12` the T/C (dose: 25.0 mg/kg/injection, schedule: Q01DX005 (ip), vehicle: saline + Tween-80 + alcohol) was 105 % of control, the T/C (dose: 50.0 mg/kg/injection, schedule: Q01DX005 (ip), vehicle: saline + Tween-80 + alcohol) was 105 % of control and the T/C (dose: 100.0 mg/kg/injection, schedule: Q01DX005 (ip), vehicle: saline + Tween-80 + alcohol) was 100 % of control. For the same molecule, the T/C (dose: 200.0 mg/kg/injection, schedule: Q01DX005 (ip), vehicle: saline + Tween-80 + alcohol) was 105 % of control.
`CCC(=O)N(C)[C@@H](C)C(=O)O[C@H]1CC(=O)N(C)c2cc(cc(OC)c2Cl)C/C(C)=C/C=C[C@@H](OC)[C@@]2(O)C[C@H](OC(=O)N2)[C@@H](C)[C@@H]2O[C@@]12C` was tested, and the T/C (dose: 0.1 micrograms/kg/injection, schedule: Q01DX009 (ip), vehicle: saline) was 105 % of control, the T/C (dose: 0.2 micrograms/kg/injection, schedule: Q01DX009 (ip), vehicle: saline) was 123 % of control and the T/C (dose: 3.1 micrograms/kg/injection, schedule: Q01DX009 (ip), vehicle: saline + alcohol) was 160 % of control. The T/C (dose: 3.1 micrograms/kg/injection, schedule: Q01DX009 (ip), vehicle: saline) was 150 % of control, the T/C (dose: 6.3 micrograms/kg/injection, schedule: Q01DX009 (ip), vehicle: saline + alcohol) was 151 % of control and the T/C (dose: 6.3 micrograms/kg/injection, schedule: Q01DX009 (ip), vehicle: saline) was 161 % of control.
In the case of `COc1ccc(CN2CCCN(Cc3ccc(OC)cc3)C2c2cc3ccccc3c3ccccc23)cc1`, the T/C [7] was 99 % of control, the T/C [8] was 99 % of control and the T/C [9] was 101 % of control.
In the case of `c1ccc2c(c1)Nc1ccc(CN3CCOCC3)cc1S2`, the T/C (dose: 60.0 mg/kg/injection, schedule: Q01DX005 (ip), vehicle: Klucel (hydroxypropylcellulose) (HPC)) was 104 % of control, the T/C (dose: 120.0 mg/kg/injection, schedule: Q01DX005 (ip), vehicle: Klucel (hydroxypropylcellulose) (HPC)) was 97 % of control and the T/C (dose: 240.0 mg/kg/injection, schedule: Q01DX005 (ip), vehicle: Klucel (hydroxypropylcellulose) (HPC)) was 92 % of control.
For `O=C(c1ccccc1)c1nonc1C(=O)c1ccccc1`, the T/C (dose: 100.0 mg/kg/injection, schedule: Q01DX001 (ip), vehicle: saline with Tween-80) was 95 % of control, the T/C (dose: 200.0 mg/kg/injection, schedule: Q01DX001 (ip), vehicle: saline with Tween-80) was 104 % of control and the T/C (dose: 400.0 mg/kg/injection, schedule: Q01DX001 (ip), vehicle: saline with Tween-80) was 95 % of control.
For `O/N=C(\CNC/C(=N\O)NO)NO`, the T/C [2] was 90 % of control, the T/C [3] was 97 % of control and the T/C [4] was 93 % of control.
With `CCC(C)C1CCCCC1` (stereo unspecified) the T/C (dose: 100.0 mg/kg/injection, schedule: Q01DX009 (ip), vehicle: Klucel (hydroxypropylcellulose) (HPC)) was 104 % of control, the T/C (dose: 200.0 mg/kg/injection, schedule: Q01DX009 (ip), vehicle: Klucel (hydroxypropylcellulose) (HPC)) was 100 % of control and the T/C (dose: 400.0 mg/kg/injection, schedule: Q01DX009 (ip), vehicle: Klucel (hydroxypropylcellulose) (HPC)) was 101 % of control.
`CN1C(c2ccccc2)C2CCCC(C2O)C1c1ccccc1` (stereo unspecified) was tested, and the T/C [10] was 97 % of control, the T/C [11] was 100 % of control and the T/C (dose: 400.0 mg/kg/injection, schedule: Q04DX003 (ip), vehicle: saline) was 98 % of control.
With `CN(C)C(C(N(C)C)=[N+](C)C)=[N+](C)C` the T/C [12] was 108 % of control and 109 % of control and 89 % of control, the T/C [13] was 110 % of control and 111 % of control and the T/C [14] was 100 % of control and 103 % of control and 88 % of control.
For `[Cl][Sn]([c]1ccccc1)[c]1ccccc1`, the T/C (dose: 1.8 mg/kg/injection, schedule: Q03HX015 (ip), vehicle: saline) was 150 % of control, the T/C (dose: 2.7 mg/kg/injection, schedule: Q03HX015 (ip), vehicle: saline) was 152 % of control and the T/C (dose: 3.12 mg/kg/injection, schedule: Q01DX009 (ip), vehicle: saline) was 86 % of control. For the same molecule, the T/C (dose: 4.0 mg/kg/injection, schedule: Q03HX015 (ip), vehicle: saline) was 163 % of control, the T/C (dose: 5.3 mg/kg/injection, schedule: Q01DX005 (ip), vehicle: saline) was 154 % of control and the T/C (dose: 12.0 mg/kg/injection, schedule: Q01DX005 (ip), vehicle: saline) was 163 % of control. For the same molecule, the T/C [12] was 163 % of control, the T/C [15] was 114 % of control and the T/C [13] was 198 % of control. For the same molecule, the T/C [10] was 154 % of control.
For `N/N=C1/C=Cc2cccc3cccc1c23`, the T/C [7] was 89 % of control and the T/C [8] was 89 % of control.
With `O=C(OCC1N=C1c1ccccc1)c1ccc(Br)cc1` (stereo unspecified) the T/C (dose: 100.0 mg/kg/injection, schedule: Q01DX001 (ip), vehicle: suspension in saline) was 104 % of control, the T/C (dose: 200.0 mg/kg/injection, schedule: Q01DX001 (ip), vehicle: suspension in saline) was 99 % of control and the T/C (dose: 400.0 mg/kg/injection, schedule: Q01DX001 (ip), vehicle: suspension in saline) was 104 % of control.
In the case of `c1cc2cc(-c3ccc4cc(C5=NCCN5)[nH]c4c3)[nH]c2cc1C1=NCCN1`, the T/C [16] was 108 % of control, the T/C (dose: 50.0 mg/kg/injection, schedule: Q04DX003 (ip), vehicle: saline) was 116 % of control and the T/C [11] was 184 % of control.
In the case of `CC(C)(C)N=C(CC(=NC(C)(C)C)Nc1ccccc1Cl)Nc1ccccc1Cl`, the T/C [5] was 91 % of control, the T/C [6] was 92 % of control and the T/C (dose: 200.0 mg/kg/injection, schedule: Q01DX009 (ip), vehicle: saline with Tween-80) was 86 % of control.
With `Cc1cccc(NC(=S)/N=C(\SCc2ccccc2)N(C)c2ccccc2)c1` the T/C [7] was 90 % of control and the T/C [8] was 93 % of control.
`O[C@@]12CO[C@@H](c3ccc4c(c3)OCO4)[C@@H]1CO[C@H]2c1ccc2c(c1)OCO2` was tested, and the T/C (dose: 25.0 mg/kg/injection, schedule: Q01DX005 (ip), vehicle: Klucel (hydroxypropylcellulose) (HPC)) was 92 % of control, the T/C [2] was 90 % of control and the T/C [3] was 86 % of control. For the same molecule, the T/C [4] was 95 % of control.
With `COc1cc(C2c3cc4c(cc3OC3(O)CCCC23)OCO4)cc(OC)c1OC` (stereo unspecified) the T/C [1] was 91 % of control, the T/C [17] was 93 % of control and the T/C [18] was 99 % of control.
`NC(=O)c1[nH]ccc1NCc1ccccc1` was tested, and the T/C [7] was 97 % of control, the T/C [8] was 88 % of control and the T/C [9] was 97 % of control.
`COc1cc2c(cc1OC)C1=C(CC2)C2CCCN2CC1` (stereo unspecified) was tested, and the T/C [15] was 104 % of control and the T/C [16] was 100 % of control.
`CSC(=S)Nc1nc2ccc(Cl)cc2s1` was tested, and the T/C (dose: 6.25 mg/kg/injection, schedule: Q01DX009 (ip), vehicle: Klucel (hydroxypropylcellulose) (HPC)) was 104 % of control, the T/C (dose: 12.5 mg/kg/injection, schedule: Q01DX009 (ip), vehicle: Klucel (hydroxypropylcellulose) (HPC)) was 111 % of control and the T/C (dose: 25.0 mg/kg/injection, schedule: Q01DX009 (ip), vehicle: Klucel (hydroxypropylcellulose) (HPC)) was 88 % of control.
In the case of `CCCc1[nH]n(-c2ccccc2)c(=O)c1N=Nc1cccc(C(F)(F)F)c1`, the T/C [14] was 93 % of control, the T/C (dose: 100.0 mg/kg/injection, schedule: Q01DX009 (ip), vehicle: saline) was 96 % of control and the T/C (dose: 200.0 mg/kg/injection, schedule: Q01DX009 (ip), vehicle: saline) was 90 % of control.
In the case of `COc1cc(O)c(/C=N\O)c(OC)c1`, the T/C [1] was 96 % of control, the T/C [17] was 98 % of control and the T/C [18] was 98 % of control.
